The values below come from US4419123A, “Herbicidal 4-trifluoromethyl-3'-carbon-substituted-4'-substituted diphenyl ethers” (Rohm and Haas Company, priority 1981, dated 1983).

Experiment [1] in a line: Preemergence herbicidal activity (% control) against monocot weeds. The class given is in vivo. To be noted: pre-emergence, 336 h, average, about two weeks after application, read-out: Herbicidal activity (% control), preemergence, monocots; for activity at 4483.4 g/ha: 4 lb./A.; for activity at 11208.5 g/ha: 10 lb./A.; for activity at 2241.7 g/ha: 2 lb./A. The text has this:
(§1) barnyardgrass (Echinochloa crusgalli) crabgrass (Digitaria spp.) nutsedge (Cyperus esculentus)
(§2) At 2 and 4 pounds per acre:
(§3) **Bermudagrass (Cynodon dactylon)
(§4) *downy brome (Bromus tectorum) foxtail (Setaria faberii)
(§5) Johnsongrass (Sorghum halepense) […]
(§6) quackgrass (Agropyron repens)
(§7) *ryegrass (Lolium perenne)
(§8) *wild oats (Avena factua)
(§9) *yellow millet (Panicum miliaceum)
(§10) The following test procedure is employed.

Experiment [2] is described as follows: Postemergence herbicidal activity (% control) against monocot weeds. In kind it is in vivo. To be noted: post-emergence, 336 h, average, about two weeks after application, read-out: Herbicidal activity (% control), postemergence, monocots; for activity at 4483.4 g/ha: 4 lb./A.; for activity at 11208.5 g/ha: 10 lb./A.; for activity at 2241.7 g/ha: 2 lb./A.
Excerpt: as §1, §2, §3, §4, §5, §6, §7, §8, §9, §10

The nature of experiment [3]: Preemergence herbicidal activity (% control) against dicot weeds. To be noted: pre-emergence, 336 h; for activity at 4483.4 g/ha: read-out: Herbicidal activity (% control), preemergence, dicots, 4 lb./A., average, about two weeks after application; for activity at 11208.5 g/ha: read-out: Herbicidal activity (% control), preemergence, dicots, 10 lb./A., average, about two weeks after application; for activity at 2241.7 g/ha: read-out: Herbicidal activity (% control), preemergence, dicots, 2 lb./A., average, about two weeks after application.

Experiment [4] is described as follows: Postemergence herbicidal activity (% control) against dicot weeds. Conditions: post-emergence, 336 h; for activity at 4483.4 g/ha: read-out: Herbicidal activity (% control), postemergence, dicots, 4 lb./A., average, about two weeks after application; for activity at 11208.5 g/ha: read-out: Herbicidal activity (% control), postemergence, dicots, 10 lb./A., average, about two weeks after application; for activity at 2241.7 g/ha: read-out: Herbicidal activity (% control), postemergence, dicots, 2 lb./A., average, about two weeks after application.

As to `CCOc1cc(Oc2ccc(C(F)(F)F)cc2)ccc1[N+](=O)[O-]` [Example 1], the activity at 4483.4 g/ha worked out at 76% in experiment [1], 57% in experiment [2], 45% in experiment [3] and 58% in experiment [4]. For the same compound, the activity at 11208.5 g/ha in experiment [1] was 42%; in experiment [2], 82%; in experiment [3], 35%; in experiment [4], 100%.
Take `COc1cc(Oc2ccc(C(F)(F)F)cc2Cl)ccc1[N+](=O)[O-]` [Example 2]: the activity at 4483.4 g/ha in experiment [1] came out at 97%; in experiment [2] it was 99%; in experiment [3], 80%; in experiment [4] it was 100%. The activity at 11208.5 g/ha in experiment [1] worked out at 97%; in experiment [2], 100%; in experiment [3] it was 100%.
With `CCCOc1cc(Oc2ccc(C(F)(F)F)cc2Cl)ccc1[N+](=O)[O-]` [Example 5], the activity at 4483.4 g/ha in experiment [1] amounted to 84%; in experiment [2], 99%; in experiment [3], 78%; in experiment [4], 100%. In addition, the activity at 11208.5 g/ha stood at 97% in experiment [1], 100% in experiment [2] and 100% in experiment [3].
For `CCCCOc1cc(Oc2ccc(C(F)(F)F)cc2Cl)ccc1[N+](=O)[O-]` [Example 6], the activity at 4483.4 g/ha in experiment [1] was 77%; in experiment [2], 91%; in experiment [3] it was 55%; in experiment [4] it was 94%. The activity at 11208.5 g/ha came out at 65% in experiment [1], 97% in experiment [2], 70% in experiment [3] and 100% in experiment [4].
As to `CCOc1cc(Oc2ccc(C(F)(F)F)cc2C#N)ccc1[N+](=O)[O-]` [Example 7, 2-Cyano-α,α,α-trifluoro-p-tolyl-3-ethoxy-4-nitrophenyl ether], the activity at 2241.7 g/ha in experiment [1] was found to be 65%; in experiment [2] it was 82%; in experiment [3], 54%; in experiment [4] it was 80%. The activity at 4483.4 g/ha was found to be 65% in experiment [1], 75% in experiment [2], 57% in experiment [3] and 77% in experiment [4]. Moreover, the activity at 11208.5 g/ha came to 61% in experiment [1], 100% in experiment [2] and 60% in experiment [3].
As for `CCCOc1cc(Oc2ccc(C(F)(F)F)cc2C#N)ccc1[N+](=O)[O-]` [Example 8], the activity at 2241.7 g/ha is 52% in experiment [1], 35% in experiment [2], 46% in experiment [3] and 66% in experiment [4]. Moreover, the activity at 4483.4 g/ha is 61% in experiment [1], 48% in experiment [2], 57% in experiment [3] and 80% in experiment [4]. Besides, the activity at 11208.5 g/ha in experiment [1] was found to be 81%; in experiment [2] it was 85%; in experiment [3], 82%; in experiment [4], 100%.
For `Cc1cc(Oc2ccc(C(F)(F)F)cc2C#N)ccc1[N+](=O)[O-]` [Example 9], the activity at 2241.7 g/ha came out at 81% in experiment [1], 82% in experiment [2], 67% in experiment [3] and 75% in experiment [4]. Besides, the activity at 4483.4 g/ha in experiment [1] was found to be 90%; in experiment [2], 97%; in experiment [3], 66%; in experiment [4], 81%. Besides, the activity at 11208.5 g/ha in experiment [1] was determined as 99%; in experiment [2], 100%; in experiment [3], 92%.
With `O=[N+]([O-])c1ccc(Oc2ccc(C(F)(F)F)cc2Cl)cc1O` [Example 10, 2-Chloro-α,α,α-trifluoro-p-tolyl-3-hydroxy-4-nitrophenylether], the activity at 2241.7 g/ha was determined as 66% in experiment [1], 17% in experiment [2], 70% in experiment [3] and 85% in experiment [4]. Moreover, the activity at 4483.4 g/ha in experiment [1] amounted to 70%; in experiment [2], 67%; in experiment [3], 100%; in experiment [4] it was 98%.
On to `C=CCOc1cc(Oc2ccc(C(F)(F)F)cc2Cl)ccc1[N+](=O)[O-]` [Example 12], for which the activity at 2241.7 g/ha was determined as 72% in experiment [1], 99% in experiment [2], 93% in experiment [3] and 100% in experiment [4]. Moreover, the activity at 4483.4 g/ha stood at 86% in experiment [1], 77% in experiment [2], 96% in experiment [3] and 100% in experiment [4].
For `C#CCOc1cc(Oc2ccc(C(F)(F)F)cc2Cl)ccc1[N+](=O)[O-]` [Example 13], the values for the activity at 2241.7 g/ha in experiment [1], in experiment [2] and in experiment [3] were 78%, 100% and 72%, respectively. In addition, the activity at 4483.4 g/ha in experiment [1] worked out at 76%; in experiment [2], 77%; in experiment [3], 90%; in experiment [4] it was 98%.
With `CC#CCCOc1cc(Oc2ccc(C(F)(F)F)cc2Cl)ccc1[N+](=O)[O-]` [Example 14], the activity at 2241.7 g/ha in experiment [1] turned out to be 30%; in experiment [2] it was 91%; in experiment [3] it was 22%; in experiment [4] it was 100%. The activity at 4483.4 g/ha in experiment [1] is 64%; in experiment [2], 61%; in experiment [3], 78%; in experiment [4], 94%.
As to `O=[N+]([O-])c1ccc(Oc2ccc(C(F)(F)F)cc2Cl)cc1OCCO` [Example 15, 2-chloro-α,α,α-trifluoro-p-tolyl-3-(2-hydroxyethoxy)-4-nitrophenyl ether], the activity at 2241.7 g/ha in experiment [1] is 68%; in experiment [2], 76%; in experiment [3] it was 90%; in experiment [4] it was 94%. Also, the activity at 4483.4 g/ha in experiment [1] was 99%; in experiment [2], 79%; in experiment [3], 100%; in experiment [4], 99%.
For `CCOCCOc1cc(Oc2ccc(C(F)(F)F)cc2Cl)ccc1[N+](=O)[O-]` [Example 16], the activity at 2241.7 g/ha in experiment [1] was determined as 67%; in experiment [2], 82%; in experiment [3] it was 75%; in experiment [4] it was 94%. Moreover, the activity at 4483.4 g/ha in experiment [1] is 86%; in experiment [2], 77%; in experiment [3], 94%; in experiment [4] it was 96%.
With `CN(C)CCOc1cc(Oc2ccc(C(F)(F)F)cc2Cl)ccc1[N+](=O)[O-]` [Example 17, 2-chloro-α,α,α-trifluoro-p-tolyl-3-(2-dimethylaminoethoxy)-4-nitrophenyl ether], the activity at 2241.7 g/ha turned out to be 20% in experiment [1], 39% in experiment [2], 31% in experiment [3] and 98% in experiment [4]. Moreover, the activity at 4483.4 g/ha in experiment [1] came out at 51%; in experiment [2], 45%; in experiment [3], 84%; in experiment [4] it was 89%.
For `O=[N+]([O-])c1ccc(Oc2ccc(C(F)(F)F)cc2Cl)cc1NCCO` [Example 22], the activity at 2241.7 g/ha in experiment [1] was 63%; in experiment [2] it was 70%; in experiment [3], 77%; in experiment [4] it was 100%. Also, the activity at 4483.4 g/ha amounted to 72% in experiment [1], 60% in experiment [2], 98% in experiment [3] and 99% in experiment [4].
Regarding `O=C(O)COc1cc(Oc2ccc(C(F)(F)F)cc2Cl)ccc1[N+](=O)[O-]` [Example 23], the activity at 2241.7 g/ha in experiment [1] turned out to be 55%; in experiment [2], 71%; in experiment [3], 87%; in experiment [4], 100%. The activity at 4483.4 g/ha in experiment [1] is 90%; in experiment [2], 82%; in experiment [3], 64%; in experiment [4], 100%.
With `CCOC(=O)COc1cc(Oc2ccc(C(F)(F)F)cc2Cl)ccc1[N+](=O)[O-]` [Example 24], the activity at 2241.7 g/ha in experiment [1] is 62%; in experiment [2], 84%; in experiment [3], 97%; in experiment [4], 100%. In addition, the activity at 4483.4 g/ha was found to be 91% in experiment [1], 86% in experiment [2], 68% in experiment [3] and 99% in experiment [4].
